Columns and labels:
Phytophthora infestans = assay type: in vivo; conditions: tomato plants, preventive spray, 100 ppm of active ingredient, evaluated 7 days after inoculation
[1] = Measurement of logP values by HPLC on reversed phase columns (EEC directive 79/831 Annex V.A8); assay type: physicochemical; conditions: for LogP: method [a]: pH 2,7, 0.1% formic acid in water / acetonitrile, linear gradient 10% to 95% acetonitrile
Method: Measurement of logP values was performed according EEC directive 79/831 Annex V.A8 by HPLC (High Performance Liquid Chromatography) on reversed phase columns with the following methods:
^[a] Measurement of LC-MS was done at pH 2,7 with 0.1% formic acid in water and with acetonitrile (contains 0.1% formic acid) as eluent with a linear gradient from 10% acetonitrile to 95% acetonitrile.
Calibration was done with not branched alkan2-ones (with 3 to 16 carbon atoms) with known logP-values (measurement of logP values using retention times with linear interpolation between successive alkanones). lambda-maX-values were determined using UV-spectra from 200 nm to 400 nm and the peak values of the chromatographic signals.

Plasmopara viticola = experiment: Plasmopara test (grapevines) / preventive; assay type: in vivo; conditions: grapevine plants, preventive spray, 10 ppm of active ingredient, evaluated 6 days after inoculation
Method: Plasmopara Test (Grapevines)/Preventive
Solvent: 24.5 parts by weight of acetone • 24.5 parts by weight of dimethylacetamide
Emulsifier: 1 part by weight of alkylaryl polyglycol ether
To produce a suitable preparation of active compound, 1 part by weight of active compound is mixed with the stated amounts of solvent and emulsifier, and the concentrate is diluted with water to the desired concentration.
To test for preventive activity, young plants are sprayed with the preparation of active compound at the stated rate of application. After the spray coating has dried on, the plants are inoculated with an aqueous spore suspension of Plasmopara viticola and then remain for 1 day in an incubation cabinet at approximately 20° C. and a relative atmospheric humidity of 100%. The plant is subsequently placed for 4 days in a greenhouse at approximately 21° C. and a relative atmospheric humidity of approximately 90%.
The plants are then misted and placed for 1 day in an incubation cabinet.
The test is evaluated 6 days after the inoculation. 0% means an efficacy which corresponds to that of the untreated control, while an efficacy of 100% means that no disease is observed.

For `Cc1nnnn1C(=NOCc1csc(NC(=O)C2CC(c3ccccc3Cl)=NO2)n1)c1ccccc1` (stereo not drawn) [Example 28], the Eff. % (Phytophthora infestans) was 90% and the LogP [1] was 3.55^[a].
With `Cn1nnnc1C(=NOCc1cccc(NC(=O)C2CC(c3ccccc3)=NO2)n1)c1ccccc1` (stereo not drawn) [Example 2] the LogP [1] was 3.51^[a].
For `Cc1nnnn1C(=NOCc1csc(NC(=O)C2CC(c3ccccc3)=NO2)n1)c1ccccc1` (stereo not drawn) [Example 8], the Eff. % (Phytophthora infestans) was 95% and the LogP [1] was 3.35^[a].
In the case of `Cc1nnnn1C(=NOCc1csc(NC(=O)C2CC(C(C)C)=NO2)n1)c1ccccc1` (stereo not drawn) [Example 25], the Eff. % (Phytophthora infestans) is reported as 85% and the LogP [1] is reported as 2.96^[a].
With `Cc1nnnn1C(=NOCc1csc(NC(=O)C2CC(c3ccccc3F)=NO2)n1)c1ccccc1` (stereo not drawn) [Example 12] the Eff. % (Phytophthora infestans) was 95% and the LogP [1] was 3.31^[a].
With `Cc1nnnn1C(=NOCc1cccc(NC(=O)C2CC(c3ccccc3F)=NO2)n1)c1ccccc1` (stereo not drawn) [Example 4] the Eff. % (Phytophthora infestans) was 95% and the LogP [1] was 3.59^[a].
For `Cn1nnnc1/C(=N\OCc1cccc(NC(=O)C2CC(c3ccccc3F)=NO2)n1)c1ccccc1` (stereo not drawn) [Example 3, 3-(2-fluorophenyl)-N-{6-[({[(Z)-(1-methyl-1H-tetrazol-5-yl)(phenyl)methylene]amino}oxy)methyl]pyridin-2-yl}-4,5-dihydro-1,2-oxazole-5-carboxamide], the Eff. % (Phytophthora infestans) was 93%, the chromatographic logP ([1]; reversed phase HPLC columns, pH 2.7, HCOOH method, reported in preparation example) was 3.5 and the Eff. % (Plasmopara viticola) was 74%.
With `Cn1nnnc1C(=NOCc1csc(NC(=O)C2CC(c3cc(F)ccc3F)=NO2)n1)c1ccccc1` (stereo not drawn) [Example 17] the Eff. % (Phytophthora infestans) was 95% and the LogP [1] was 3.39^[a].
In the case of `Cn1nnnc1C(=NOCc1csc(NC(=O)C2CC(c3c(F)cccc3Cl)=NO2)n1)c1ccccc1` (stereo not drawn) [Example 20], the Eff. % (Phytophthora infestans) is reported as 93% and the LogP [1] is reported as 3.44^[a].
In the case of `Cc1nnnn1C(=NOCc1csc(NC(=O)C2(C)CC(c3ccccc3)=NO2)n1)c1ccccc1` (stereo not drawn) [Example 14], the Eff. % (Phytophthora infestans) is reported as 95%, the LogP [1] is reported as 3.64^[a] and the Eff. % (Plasmopara viticola) is reported as 92%.
For `Cc1nnnn1C(=NOCc1csc(NC(=O)C2CC(c3c(F)cccc3Cl)=NO2)n1)c1ccccc1` (stereo not drawn) [Example 22], the Eff. % (Phytophthora infestans) was 90% and the LogP [1] was 3.48^[a].
In the case of `Cc1nnnn1C(=NOCc1csc(NC(=O)C2CC(c3cc(F)ccc3F)=NO2)n1)c1ccccc1` (stereo not drawn) [Example 24], the Eff. % (Phytophthora infestans) is reported as 93% and the LogP [1] is reported as 3.46^[a].
In the case of `CCC1=NOC(C(=O)Nc2nc(CON=C(c3ccccc3)c3nnnn3C)cs2)C1` (stereo not drawn) [Example 19], the Eff. % (Phytophthora infestans) is reported as 85% and the LogP [1] is reported as 2.64^[a].
In the case of `Cn1nnnc1C(=NOCc1csc(NC(=O)C2CC(c3ccccc3)=NO2)n1)c1ccccc1` (stereo not drawn) [Example 10], the Eff. % (Phytophthora infestans) is reported as 93% and the LogP [1] is reported as 3.31^[a].
For `COc1ccc(C2=NOC(C(=O)Nc3nc(CON=C(c4ccccc4)n4nnnc4C)cs3)C2)cc1` (stereo not drawn) [Example 23], the LogP [1] was 3.29^[a].
With `Cn1nnnc1C(=NOCc1csc(NC(=O)C2CC(c3ccccc3Cl)=NO2)n1)c1ccccc1` (stereo not drawn) [Example 15] the Eff. % (Phytophthora infestans) was 90% and the LogP [1] was 3.48^[a].
In the case of `CC1=NOC(C)(C(=O)Nc2cccc(CON=C(c3ccccc3)c3nnnn3C)n2)C1` (stereo not drawn) [Example 1], the LogP [1] is reported as 2.84^[a].
For `CCC1=NOC(C(=O)Nc2nc(CON=C(c3ccccc3)n3nnnc3C)cs2)C1` (stereo not drawn) [Example 26], the LogP [1] was 2.68^[a].
For `CC1=NOC(C)(C(=O)Nc2nc(CON=C(c3ccccc3)n3nnnc3C)cs2)C1` (stereo not drawn) [Example 7], the LogP [1] was 2.73^[a].
For `CC1=NOC(C)(C(=O)Nc2nc(CON=C(c3ccccc3)c3nnnn3C)cs2)C1` (stereo not drawn) [Example 9], the Eff. % (Phytophthora infestans) was 85% and the LogP [1] was 2.69^[a].
For `CC1=NOC(C(=O)Nc2nc(CON=C(c3ccccc3)n3nnnc3C)cs2)C1` (stereo not drawn) [Example 27], the LogP [1] was 2.42^[a].
For `CC1=NOC(C(=O)Nc2nc(CON=C(c3ccccc3)c3nnnn3C)cs2)C1` (stereo not drawn) [Example 16], the Eff. % (Phytophthora infestans) was 93% and the LogP [1] was 2.35^[a].
In the case of `Cc1nnnn1C(=NOCc1cccc(NC(=O)C2(C)CC(c3ccccc3)=NO2)n1)c1ccccc1` (stereo not drawn) [Example 6], the Eff. % (Phytophthora infestans) is reported as 95%, the LogP [1] is reported as 3.94^[a] and the Eff. % (Plasmopara viticola) is reported as 85%.
With `Cn1nnnc1C(=NOCc1cccc(NC(=O)C2(C)CC(c3ccccc3)=NO2)n1)c1ccccc1` (stereo not drawn) [Example 5] the Eff. % (Phytophthora infestans) was 89% and the LogP [1] was 3.87^[a].
In the case of `COc1ccc(C2=NOC(C(=O)Nc3nc(CON=C(c4ccccc4)c4nnnn4C)cs3)C2)cc1` (stereo not drawn) [Example 21], the Eff. % (Phytophthora infestans) is reported as 85% and the LogP [1] is reported as 3.25^[a].
In the case of `Cn1nnnc1C(=NOCc1csc(NC(=O)C2CC(c3ccccc3F)=NO2)n1)c1ccccc1` (stereo not drawn) [Example 11], the Eff. % (Phytophthora infestans) is reported as 95% and the LogP [1] is reported as 3.29^[a].
With `CC(C)C1=NOC(C(=O)Nc2nc(CON=C(c3ccccc3)c3nnnn3C)cs2)C1` (stereo not drawn) [Example 18] the Eff. % (Phytophthora infestans) was 93% and the LogP [1] was 2.92^[a].
With `Cn1nnnc1C(=NOCc1csc(NC(=O)C2(C)CC(c3ccccc3)=NO2)n1)c1ccccc1` (stereo not drawn) [Example 13] the Eff. % (Phytophthora infestans) was 100%, the LogP [1] was 3.6^[a] and the Eff. % (Plasmopara viticola) was 97%.

Source: patent US20140206726A1 (priority 2011, published 2014)
